Measurements as given in PubChem BioAssay (NCI).
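Compound exposure: 48 hours, 5 concentrations, 96-well plates. Definition used: TGI = concentration required for complete inhibition of growth.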

How the values were obtained:
Experiment in all cases: inhibition of tumour cell growth, NCI panel, 48 h
RPMI-8226 leukemia = system: RPMI-8226 leukemia
TK-10 renal = system: TK-10 renal
MALME-3M melanoma = system: MALME-3M melanoma
OVCAR-4 ovarian = system: OVCAR-4 ovarian
UACC-62 melanoma = system: UACC-62 melanoma
U251 CNS = system: U251 CNS
SNB-19 CNS = system: SNB-19 CNS
IGROV1 ovarian = system: IGROV1 ovarian
SW-620 colon = system: SW-620 colon
SN12C renal = system: SN12C renal

SMILES | TGI (RPMI-8226 leukemia) [µM] | TGI (TK-10 renal) [µM] | TGI (MALME-3M melanoma) [µM] | TGI (OVCAR-4 ovarian) [µM] | TGI (UACC-62 melanoma) [µM] | TGI (U251 CNS) [µM] | TGI (SNB-19 CNS) [µM] | TGI (IGROV1 ovarian) [µM] | TGI (SW-620 colon) [µM] | TGI (SN12C renal) [µM]
COc1ccc(N2CN(C)CSC2=S)cc1 | > 100 | > 100 | > 100 | > 100 | > 100 | > 100 | > 100 | > 100 | > 100 | > 100
Cc1c(OCCCOc2ccc3c(=O)cc(-c4ccccc4)oc3c2C)ccc2c(=O)cc(-c3ccccc3)oc12 | > 100 | > 100 | > 100 |  | > 100 | > 100 | > 100 | > 100 | > 100 | 
C=CCOC(=O)c1c(C)n([O-])c2cc(Cl)c(Cl)cc2[n+]1=O | 33.9 | 87.2 | 70.9 | 19.1 | 41.3 | > 100 | > 100 | 22.8 |  | 54.7
O=C1C(C(c2ccc([N+](=O)[O-])cc2)N2CCOCC2)=C(O)C(c2ccccc2)N1c1ccccc1 (configuration not stated) | > 10 | > 10 | > 10 | > 10 | > 10 | > 10 | > 10 | > 10 | > 10 | > 10
Nc1ncnc2c1ncn2C1OC(CO)C(O)C1NS(=O)(=O)c1ccccc1 (configuration not stated) | > 100 | > 100 | > 100 | > 100 | > 100 | > 100 | > 100 | > 100 | > 100 | > 100
Cc1ccc2n(c1)cc(-c1ccc(/C=N/NC(=N)N/N=C/c3ccc(-c4cn5cc(C)ccc5[n+]4C)cc3)cc1)[n+]2C | > 100 | > 100 |  | > 100 |  | > 100 | > 100 | > 100 | > 100 | > 100
CCOC(=O)CCC(NC(=O)c1ccc(Nc2nc3cc(C(F)(F)F)ccc3nc2C(=O)OCC)cc1)C(=O)OCC (configuration not stated) | > 100 |  |  |  | 41.7 | 23.3 | 22.6 | 43.5 | 81.6 | 24.3
Brc1c2nc3ccccc3nc2n2ccc3ccccc3c12 | > 100 | > 100 | > 100 | > 100 | > 100 | > 100 | > 100 | > 100 | > 100 | > 100
O=C(/C=C/c1ccc(OCc2ccccc2)cc1)NCc1ccc(C(=O)NCc2ccccc2)cc1 | > 100 | > 100 | > 100 | > 100 | > 100 | > 100 | > 100 | > 100 | > 100 | > 100
CC1(C)Oc2ccc3c(=O)cc(-c4cccs4)oc3c2C1C(=O)O (configuration not stated) |  | > 100 | > 100 |  |  | > 100 |  | > 100 |  | > 100
COc1cccc2c1C(=O)c1c(O)c3c(c(O)c1C2=O)C[C@@](O)(C(=O)CN1CCOCC1)C[C@@H]3OC1CC(N)C(O)C(C)O1 (some centres not stated) | 43.2 |  | 14.2 | 69.6 | 15.7 | > 100 | > 100 | > 90.6 | > 78.7 | > 100
O=C(NNS(=O)(=O)c1ccc(Br)cc1)c1ccc(Cl)cc1NC(=O)C12CC3CC(CC(C3)C1)C2 | 24 | 33.2 | 35.3 | 23.8 | 25.6 | 22.7 | 28.7 | 24.7 | 41.4 | 36.1
C/C=C/c1cc2c(c(=O)o1)C(=O)[C@@H](O)[C@H](C)O2 | 34.5 |  | 32.5 | 29.7 | 34.1 | 32.9 | 46.1 | 23.3 | 22.9 | 29.2
N/C(=N\S(=O)(=O)c1ccc(-c2ccccn2)s1)Nc1ccc(Cl)cc1 | 84.5 | 32.1 | 33.4 | 37.7 | 26.4 | 28.6 | 31.5 | 34.1 | 45.1 | 30.3
CCCCC(=C=C(C)CO)C1CCCN1C(=O)OC(C)(C)C (configuration not stated) | 36.8 | 48.1 | 28.2 | 39.3 | 26.9 | 31.7 | 60.2 | 43.6 | 89.8 | 31.5
COc1ccc(C2S/C(=C\c3cccc(OC)c3)C(=O)N2NC(=O)Cc2ccccc2)cc1 (configuration not stated) | > 100 | > 100 | > 100 | > 100 | > 100 | > 100 |  | > 100 | > 100 | > 100
C=C1C(=O)[C@]23C[C@H]1C[C@@H](O)[C@H]2[C@]1(COC3=O)[C@@H](OC(C)=O)CC[C@@](C)(COC(C)=O)[C@H]1C=O |  | > 50 | 27 | > 50 | > 50 | > 50 | > 50 | > 50 | 18.7 | > 50
O=S(c1ccccc1)C1CC2CC3(CCC21O)OCCO3 (configuration not stated) | > 100 | > 100 | > 100 | > 100 | > 100 | > 100 | > 100 | > 100 | > 100 | 
COc1cc(S(=O)(=O)Nc2ccc(-c3csc(N4C(=O)C(Cl)C4c4cccc(Oc5ccccc5)c4)n3)cc2)ccc1Cl (configuration not stated) | > 100 |  | > 100 | 18.1 | 53.4 |  | > 100 | 7.45 | > 100 | 30.2
Oc1cc(O)c2c(c1)O[C@H](c1cc(O)c(O)c(O)c1)[C@@H](O)C2 | 43.9 |  | > 100 | 48.7 |  | 34.5 | > 100 | 38.9 | 32.7 | 33
CC(=O)Oc1c2c(c(OC(C)=O)c3c1n(C(C)=O)c1ccccc1n3C(C)=O)n(C(C)=O)c1ccccc1n2C(C)=O | 10.8 |  | 7.56 | 40.5 | 37 | 29.5 | 53.8 |  | 5.67 | 19.3
COc1cc(N)c2[nH]c3c(C)ccc(C)c3c2c1 | > 100 | > 100 | > 100 | > 100 |  |  | > 100 |  | > 100 | > 100
Cc1ccc(/C(O)=C/c2nc3cccnc3[nH]c2=O)cc1 | > 100 | > 100 | > 100 | > 100 | > 100 | > 100 | > 100 | > 100 |  | > 100
